Reference: PMC7461568, “Novel Cyclic Lipopeptide Antibiotics: Effects of Acyl Chain Length and Position” (International Journal of Molecular Sciences, 2020)
≈ marks a conversion by molar mass, not a printed value. Where a SMILES comes first, the peptide text is derived from it. [ ]: non-standard residue; d: D form. The star is where a group is joined. 2Nal = N[C@@H](Cc1ccc2ccccc2c1)C(=O)O; Octanoyl = CCCCCCCC(=O)*; Dab = NCC[C@H](N)C(=O)O; AEEA = NCCOCCOCC(=O)O

Key:
[1] = test system: E. coli ATCC 25922; type: cell-based, Escherichia coli; settings: MHB-II, inoculum 5 × 10^5 CFU/mL, 37 °C, 18–24 h, visual read-out, triplicate
Protocol: (§1) In the original report on S3(B), MIC experiments were carried out by using non-cation-adjusted MHB-I media. To this, bovine serum albumin (BSA) and acetic acid were added. The rationale for choosing a medium without cations is that cation-adjusted media (MHB-II) in some cases causes substantial inhibition of the activity of cationic peptides. Furthermore, some peptides are at risk of precipitation when diluted into MHB medium, which can be avoided via the addition of BSA and acetic acid. However, the use of MHB-II is favorable to imitate the in vivo conditions as much as possible. Both media were tested with and without the addition of BSA and acetic acid by trial and error. The use of pure MHB-II was compatible with S3(B) and its fatty acid analogues, and therefore was chosen for the MIC determinations. Noticeably, MHB-I with BSA and acetic acid led to precipitation of lipopeptides in the present work.
Cation-adjusted Mueller-Hinton broth (MHB-II) media (BD BBLTM Beef extract powder, BD BactoTMCasamino acids, and DIFCO soluble starch was from Becton, Dickinson and Company©, Franklin Lakes, NJ, USA). MHB media supplemented with 0.2% BSA was from Sigma Aldrich (St. Louis, MO, USA) and 0.01% acetic acid from VWR®. The 96 well plate cell-culture cluster, round-bottom, polypropylene plates, and V-shaped 96 well polypropylene plates were purchased from Corning® Inc., Costar®, Corning, NY, USA. Microseal® film was obtained from Bio-Rad Laboratories, Inc., Hercules, CA, USA. A VersaMaxTM Tunable Microplate Reader (Molecular Devices LLC, Sunnyvale, CA, USA) was used and the data were evaluated on a Softmax® Pro (Molecular Devices LLC).
The MIC experiments were performed according to a protocol adapted from Wiegand et al., with minor modifications. The MICs were determined in triplicate. The peptides were dissolved in Milli-Q water to produce 10 mg/mL stock solutions in small glass containers. The bacterial isolates to be tested were streaked onto agar plates to obtain single colonies, and the plates were incubated at 37 °C for 18–24 h. The strains tested were S. aureus ATCC 29213, P. aeruginosa ATCC 27853, E. coli ATCC 25922, A. baumannii ATCC 19606, and K. pneumonia ATCC 13883. Test compounds were prepared in 2-fold dilutions in 50 μL volumes in polypropylene microtiter plates. Bacterial cultures grown to OD600 = 0.1–0.4 were diluted to a desired OD600 of 0.001–0.002 corresponding to 1 × 10^6 CFU/mL. Next, 50 μL bacterial suspension was added to the microtiter plates, giving a final bacterial inoculum of 5 × 10^5 CFU/mL per well. The plates were incubated at 37 °C for 18–24 h. […] The MIC values were visually evaluated, and the MIC was set to the lowest concentration […] based on triplicate measurements. […]

[2] = test system: S. aureus ATCC 29213; test: microbe, parasite or virus in culture; type: cell-based, Staphylococcus aureus; settings: S. aureus ATCC 29213; MHB-II, inoculum 5 × 10^5 CFU/mL, 37 °C, 18–24 h, visual read-out, triplicate
Protocol: as §1, with “The use of pure MHB-II was compatible with S3(B) and its fatty acid analogues, and therefore was chosen for the MIC determinations. Noticeably, MHB-I with BSA and acetic acid led to precipitation of lipopeptides in the present work.” left out
(§2) Cation-adjusted Mueller-Hinton broth (MHB-II) media (BD BBLTM Beef extract powder, BD BactoTMCasamino acids, and DIFCO soluble starch was from Becton, Dickinson and Company©, Franklin Lakes, NJ, USA). […] A VersaMaxTM Tunable Microplate Reader (Molecular Devices LLC, Sunnyvale, CA, USA) was used and the data were evaluated on a Softmax® Pro (Molecular Devices LLC).
(§3) The MIC experiments were performed according to a protocol adapted from Wiegand et al., with minor modifications. The MICs were determined in triplicate. […] The MIC values were visually evaluated, and the MIC was set to the lowest concentration […] based on triplicate measurements. […]

[3] = test system: P. aeruginosa ATCC 27853; type: cell-based, Pseudomonas aeruginosa; settings: MHB-II, inoculum 5 × 10^5 CFU/mL, 37 °C, 18–24 h, visual read-out, triplicate
Protocol: as §1, with “The use of pure MHB-II was compatible with S3(B) and its fatty acid analogues, and therefore was chosen for the MIC determinations. Noticeably, MHB-I with BSA and acetic acid led to precipitation of lipopeptides in the present work.” left out
as §2, §3

[4] = test system: human erythrocytes; test: Hemolysis of red blood cells; settings: 1 h; for %H, percent hemolytic activity against red blood cells at 150 μM: human erythrocytes, 0.5% v/v RBC suspension in PBS, peptide 150 μM, 37 °C, absorbance 414 nm, melittin positive control, triplicate
Protocol: The hemolysis experiments were performed according to the protocol described in Reference. The peptides were tested at concentrations from 2.35–150 μM, using melittin as positive control and PBS as negative control. One premade tablet of PBS was dissolved in 200 mL Milli-Q water. The solution was kept in the refrigerator for a maximum of two days. The day before the test, the positive control wells of the 96 well polypropylene plates were precoated with 150 μL of melittin 5 μM solution in PBS. The solution was prepared in Protein LoBind Eppendorf tubes. The day of the test, the solution was discarded and the wells were washed three times with 150 μL PBS. A melittin 2.50 μM solution in PBS was prepared in Protein LoBind Eppendorf tubes—500 μL for every plate to be used. The mass of the peptide needed to reach a final concentration of 300 μM (to start testing down from 150 μM) was calculated, since a volume of 500 μL was desirable. […] The peptides were dissolved in PBS and tested in triplicate.
In a 96 well polypropylene plate, 150 μL of peptide solution was transferred to three wells in Row A. Therefore, each plate could accommodate up to four peptides. A 2-fold serial dilution of the peptides was obtained by transferring 75 μL of the solutions from Row A to the corresponding wells in Row B, mixing a couple of times. From Row B, 75 μL was transferred to Row C and so on until Row G, where 75 μL was discarded after mixing. Volumes of 75 μL melittin (2.50 μM) was transferred to the positive control wells in H1–H6. Preparation of the RBC suspension: 1 mL of whole blood was transferred to a cryotube with 3 mL of PBS, and then it was gently mixed and centrifuged for 8 min at 3000 rpm. The supernatant was discarded, and the process was repeated twice; with 4 mL at 3000 rpm and 4 mL at 4000 rpm, respectively. From the final RBC pellet, 40 μL was transferred to 8 mL of PBS (multiplied by the number of test plates needed). This corresponded to a 0.5% v/v RBC suspension. The suspension was gently mixed and transferred into a CAPPOrigami reservoir. Using a multichannel pipette, 75 μL of the suspension was transferred into each well and mixed in the direction of increasing concentration. The control wells were mixed separately. The plates were covered with BioradMicroseal foil and incubated at 37 °C for 1 h. The plates (maximum two) were centrifuged for 10 min at 4000 rpm, followed by transferring of supernatant (60 μL) from each well into the corresponding wells in a clear ELISA plate. The absorbance (A) of each well was measured at λ = 414 nm using the software program Softmax(R) Pro.

[5] = Hydrophobicity by analytical RP-HPLC (%B at peak elution); type: physicochemical; settings: chromatographic, percentage of mobile phase B at the peak elution time
From the text: To investigate the effect of attaching fatty acids to a macrocycle, fatty acid tails of different lengths were used. When the carbon chain was elongated, the hydrophobicity of the peptide was increased gradually. Herein, the hydrophobicity is expressed as the percentage of mobile phase B at the peak elution time on an RP-HPLC system.

CCCCCCCC(=O)NCC[C@@H]1NC(=O)[C@H](CCN)NC(=O)[C@H](CCCNC(=N)N)NC(=O)[C@H](Cc2ccc3ccccc3c2)NC(=O)[C@H](CCN)NC(=O)[C@H](CC(N)=O)NC(=O)[C@H](CCN)NC(=O)[C@H](Cc2ccc3ccccc3c2)NC(=O)COCCOCCNC1=O [(C8)^5] (cyclo([Dab][2Nal]R[Dab][Dab](Octanoyl)[AEEA][2Nal][Dab]N))
Minimum inhibitory concentration, EC [1]: 16 µg/mL (≈ 12 µM)
Minimum inhibitory concentration, SA [2]: 8 µg/mL (≈ 5.99 µM)
Minimum inhibitory concentration, PA [3]: 8 µg/mL (≈ 5.99 µM)
%H, percent hemolytic activity against red blood cells at 150 μM [4]: 42%
%H, percent hemolytic activity against red blood cells at 150 μM ([4]; listed as (C8)^7): 56%
HD50 (hemolysis) ([4]; red cells of human): > 150 µM
%B at peak of elution in analytical HPLC (hydrophobicity) [5]: 69%
%B at peak of elution in analytical HPLC (hydrophobicity) ([5]; listed as (C8)^7): 71%
